From patent publication US10768179B2, “Method for predicting responsiveness to cancer treatment using p300-inhibiting compound” (National Cancer Center, priority 2014, dated 2020)

Columns and labels:
[1] = system: CBP-mutated lung cancer cells and lymphoma cells; assay: Sensitivity (survival rate, IC50) of cancer cell lines to p300 inhibitor C646; type: cell-based
Protocol: A549, H1299, H157, SQ5, H1703, LK2, H520 (NSCLC), RL, Loucy, RC-K8, U2932, Ramos, Farage, SUP-T1, WSU-NHL, VAL, SUDHL5, Jurkat, TE8, and TE10 were separately cultured in RPMI-1640 or DMEM supplemented with 10% fetal bovine serum (FBS). MRC-5 cells (normal fibroblasts), HEK293T cells (immortalized renal epithelial cells), and RPE-1 cells (immortalized retinal epithelial cells) were separately cultured in DMEM supplemented with 10% FBS.
The viability was determined by examining intracellular ATP level using CellTiter-Glo Luminescent Cell Viability Assay kit (Promega Corp.). Each cancer cell line was transfected with siRNA (50 nM) using Lipofectamine RNAiMAX (Invitrogen Corp.). Two days later, the cells were trypsinized, counted, and reseeded in specified numbers in 96-well plate. In order to measure the cell viability, CellTiter-Glo Luminescent Cell Viability Assay kit (Promega Corp.) was added to the cells, and […] was measured using Envision (PerkinElmer, Inc.).

CBP-mutated cancer cells = assay: Apoptosis analysis by Annexin V/PI staining after C646 treatment; type: cell-based; details: 48 hours and 96 hours after C646 treatment; FIG. 5B
Protocol: In order to detect apoptotic cells by flow cytometry, Annexin V-FITC/PI apoptosis detection kit (F. Hoffmann-La Roche, Ltd.) was used according to the manufacturer's instruction manual. Briefly, the cell pellet was suspended in a 1× binding buffer and incubated with Annexin V-FITC and PI for 20 minutes in the dark. Subsequently, the fluorescence of the cells was analyzed by flow cytometry.

CC1=NN(c2ccc(C(=O)O)cc2)C(=O)/C1=C\c1ccc(-c2cc(C)c(C)cc2[N+](=O)[O-])o1 [C646]
IC50 value for C646 ([1]; CBP-mutated vs CBP-proficient cancer cells, Student's t test, p<0.01, FIGS. 3B and 3D): low tendency relative to CBP-proficient cancer cells
sensitivity to C646 (survival rates) ([1]; CBP-mutated vs CBP-proficient lung cancer and lymphoma cell lines, FIGS. 3A and 3C): higher sensitivity of the CBP-mutated cancer cells to C646 than that of the CBP-proficient cancer cells
induction of apoptosis (Annexin V stainability) (CBP-mutated cancer cells): specifically suppresses the growth of CBP-mutated cancer cells by inducing apoptosis
